Results published in BindingDB's records for doi:10.1021/acs.jmedchem.9b01152 (Universidad De Navarra, 2020).

Molecular target: Histone deacetylase 8 (Homo sapiens) (UniProt Q9BY41)
Assay: Inhibition of human recombinant HDAC8 using RHKAcKAc-AMC substrate by fluorescence based assay

Chain of Histone deacetylase 8 (Homo sapiens) (Q9BY41 whole entry, looked up): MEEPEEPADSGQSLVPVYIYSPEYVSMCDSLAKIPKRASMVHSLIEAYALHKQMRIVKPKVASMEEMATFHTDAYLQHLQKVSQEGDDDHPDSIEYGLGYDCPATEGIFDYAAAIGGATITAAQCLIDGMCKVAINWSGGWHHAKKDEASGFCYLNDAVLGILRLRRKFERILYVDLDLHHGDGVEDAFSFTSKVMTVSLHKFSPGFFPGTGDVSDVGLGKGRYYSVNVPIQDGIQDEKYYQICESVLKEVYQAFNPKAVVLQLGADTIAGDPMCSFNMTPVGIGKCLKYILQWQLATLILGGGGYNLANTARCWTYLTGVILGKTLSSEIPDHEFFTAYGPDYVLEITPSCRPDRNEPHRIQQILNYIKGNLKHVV

Compound O=c1c2ccccc2[se]n1-c1ccccc1 [2-Phenyl-benzo[d]isoselenazol-3-one] has an IC50 of 1.2 µM.
